Patent US12208088B2 (Genentech, Inc., priority 2018, dated 2025)
pKi: −log10 of the molar value.

target: HPK1 (Homo sapiens (Human), UniProt Q92918); assay: HPK1 Lantha binding assay ("Lanth"); conditions: binding assays; Morrison Ki fit
Summary of the method: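 TR-FRET binding competition using 2 nM HPK1, 2 nM Eu-anti-GST antibody and 15 nM Tracer222 at 23 °C. Compound was incubated 1 h with enzyme and antibody, then 1 h after tracer addition, with an 11-point 5-fold dilution series. Ki obtained from a Morrison fit that corrects for tracer concentration and Kd.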

HPK1, sequence (Q92918 1-346 limits assumed): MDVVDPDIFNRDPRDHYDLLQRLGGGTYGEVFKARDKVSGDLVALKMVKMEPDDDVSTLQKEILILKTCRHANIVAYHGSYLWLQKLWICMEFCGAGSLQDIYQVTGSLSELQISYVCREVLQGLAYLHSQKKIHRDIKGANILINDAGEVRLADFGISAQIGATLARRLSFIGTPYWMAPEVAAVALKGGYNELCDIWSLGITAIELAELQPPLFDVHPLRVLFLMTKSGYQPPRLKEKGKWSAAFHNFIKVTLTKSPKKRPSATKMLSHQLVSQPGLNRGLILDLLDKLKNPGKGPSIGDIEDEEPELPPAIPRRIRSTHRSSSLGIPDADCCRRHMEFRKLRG

Compound	pKi
CN(C(=O)c1cccc(-c2cnc3c(c2)C2(CC2)CN3)c1F)c1cnn(C)c1 [Compound 141, 3-(1′,2′-dihydrospiro[cyclopropane-1,3′-pyrrolo[2,3-b]pyridin]-5′-yl)-2-fluoro-N-methyl-N-(1-methyl-1H-pyrazol-4-yl)benzamide]	6.90
CC1CN(C(=O)c2cccc(-c3cnc4c(c3)C3(CC3)CN4)c2F)C1 [Compound 142, (3-(1′,2′-dihydrospiro[cyclopropane-1,3′-pyrrolo[2,3-b]pyridin]-5′-yl)-2-fluorophenyl)(3-methylazetidin-1-yl)methanone]	6.94
CN(C)C(=O)c1c(N)ccc(-c2cnc3c(c2Cl)[C@]2(CC[C@@H](O)CC2)CN3)c1F [Compound 144a, 6-Amino-3-((1r,4r)-4′-chloro-4-hydroxy-1′,2′-dihydrospiro[cyclohexane-1,3′-pyrrolo[2,3-b]pyridin]-5′-yl)-2-fluoro-N,N-dimethylbenzamide]	7.40
CN(C)C(=O)c1c(N)ccc(-c2cnc3c(c2Cl)[C@]2(CC[C@H](O)CC2)CN3)c1F [Compound 144b, 6-Amino-3-((1s,4s)-4′-chloro-4-hydroxy-1′,2′-dihydrospiro[cyclohexane-1,3′-pyrrolo[2,3-b]pyridin]-5′-yl)-2-fluoro-N,N-dimethylbenzamide]	8.00
CN(C)C(=O)c1c(N)ccc(-c2cnc3c(c2Cl)C2(CCC(c4cccnc4)C2)CN3)c1F (centres unmarked) [Compound 145, 6-Amino-3-(4′-chloro-3-(pyridin-3-yl)-1′,2′-dihydrospiro[cyclopentane-1,3′-pyrrolo[2,3-b]pyridin]-5′-yl)-2-fluoro-N,N-dimethylbenzamide]	8.03
CN(C)C(=O)c1c(N)ccc(-c2cnc3c(c2Cl)[C@]2(CC[C@@H](c4cccnc4)C2)CN3)c1F [Compound 145a, 6-Amino-3-((1R,3R)-4′-chloro-3-(pyridin-3-yl)-1′,2′-dihydrospiro[cyclopentane-1,3′-pyrrolo[2,3-b]pyridin]-5′-yl)-2-fluoro-N,N-dimethylbenzamide]	8.00
CN(C)C(=O)c1c(N)ccc(-c2cnc3c(c2Cl)[C@]2(CC[C@H](c4cccnc4)C2)CN3)c1F [Compound 145c, 6-Amino-3-((1R,3S)-4′-chloro-3-(pyridin-3-yl)-1′,2′-dihydrospiro[cyclopentane-1,3′-pyrrolo[2,3-b]pyridin]-5′-yl)-2-fluoro-N,N-dimethylbenzamide]	7.98
CN(C)C(=O)c1c(N)ccc(-c2cnc3c(c2Cl)[C@@]2(CC[C@@H](c4cccnc4)C2)CN3)c1F [Compound 145d, 6-Amino-3-((1S,3R)-4′-chloro-3-(pyridin-3-yl)-1′,2′-dihydrospiro[cyclopentane-1,3′-pyrrolo[2,3-b]pyridin]-5′-yl)-2-fluoro-N,N-dimethylbenzamide]	7.70
O=C(c1cccc(-c2cnc3c(c2)C2(CC2)CN3)c1F)N1CCC12COC2 [Compound 147, (3-(1′,2′-dihydrospiro[cyclopropane-1,3′-pyrrolo[2,3-b]pyridin]-5′-yl)-2-fluorophenyl)(6-oxa-1-azaspiro[3.3]heptan-1-yl)methanone]	7.21
Cc1cnn([C@H]2CC[C@]3(CC2)CNc2ncc(-c4ccc(N)c(C(=O)N(C)C)c4F)c(Cl)c23)c1 [Compound 148a, 6-Amino-3-((1s,4s)-4′-chloro-4-(4-methyl-1H-pyrazol-1-yl)-1′,2′-dihydrospiro[cyclohexane-1,3′-pyrrolo[2,3-b]pyridin]-5′-yl)-2-fluoro-N,N-dimethylbenzamide]	8.66
CN(C)C(=O)c1cccc(-c2cnc3c(c2)C2(CC2)CN3)c1F [Compound 149, 3-(1′,2′-dihydrospiro[cyclopropane-1,3′-pyrrolo[2,3-b]pyridin]-5′-yl)-2-fluoro-N,N-dimethylbenzamide]	7.47
N#C[C@H]1CCCN1C(=O)c1cccc(-c2cnc3c(c2)C2(CC2)CN3)c1F [Compound 154a, (R)-1-(3-(1′,2′-dihydrospiro[cyclopropane-1,3′-pyrrolo[2,3-b]pyridin]-5′-yl)-2-fluorobenzoyl)pyrrolidine-2-carbonitrile]	7.85
Cc1ccnn1[C@H]1CC[C@@]2(CNc3ncc(-c4ccc(N)c(C(=O)N(C)C)c4F)c(Cl)c32)C1 [Compound 160a, 6-Amino-3-((1R,3S)-4′-chloro-3-(5-methyl-1H-pyrazol-1-yl)-1′,2′-dihydrospiro[cyclopentane-1,3′-pyrrolo[2,3-b]pyridin]-5′-yl)-2-fluoro-N,N-dimethylbenzamide]	7.25
CN(Cc1cnn(C)c1)C(=O)c1c(N)ccc(-c2cnc3c(c2Cl)C2(CC2)CN3)c1F [Compound 166, 6-Amino-3-(4′-chloro-1′,2′-dihydrospiro[cyclopropane-1,3′-pyrrolo[2,3-b]pyridin]-5′-yl)-2-fluoro-N-methyl-N-((1-methyl-1H-pyrazol-4-yl)methyl)benzamide]	8.36
CN(C)C(=O)c1c(N)ccc(-c2cnc3c(c2Cl)[C@]2(CC[C@H](n4nccc4C(F)(F)F)C2)CN3)c1F [Compound 169a, 6-Amino-3-((1R,3S)-4′-chloro-3-(5-(trifluoromethyl)-1H-pyrazol-1-yl)-1′,2′-dihydrospiro[cyclopentane-1,3′-pyrrolo[2,3-b]pyridin]-5′-yl)-2-fluoro-N,N-dimethylbenzamide]	7.27
O=C(c1cccc(-c2cnc3c(c2)C2(CC2)CN3)c1F)N1CCc2ccccc21 [Compound 172, (3-(1′,2′-dihydrospiro[cyclopropane-1,3′-pyrrolo[2,3-b]pyridin]-5′-yl)-2-fluorophenyl)(indolin-1-yl)methanone]	6.50

Compound	pKi
O=C(c1cccc(-c2cnc3c(c2)C2(CC2)CN3)c1F)N1CCc2ccncc21 [Compound 176, (2,3-dihydro-1H-pyrrolo[2,3-c]pyridin-1-yl)(3-(1′,2′-dihydrospiro[cyclopropane-1,3′-pyrrolo[2,3-b]pyridin]-5′-yl)-2-fluorophenyl)methanone]	6.90
OCc1ccc(-c2cnc3c(c2Cl)C2(CC=CC2)CN3)cc1 [Compound 181, (4-(4′-Chloro-1′,2′-dihydrospiro[cyclopentane-1,3′-pyrrolo[2,3-b]pyridin]-3-en-5′-yl)phenyl)methanol]	6.70
CC(C)(O)c1ccc(-c2cnc3c(c2Cl)C2(CC=CC2)CN3)cc1 [Compound 182, 2-(4-(4′-Chloro-1′,2′-dihydrospiro[cyclopentane-1,3′-pyrrolo[2,3-b]pyridin]-3-en-5′-yl)phenyl)propan-2-ol]	6.08
CS(=O)(=O)c1cccc(-c2cnc3c(c2Cl)C2(CC=CC2)CN3)c1 [Compound 183]	7.52
CCS(=O)(=O)c1cccc(-c2cnc3c(c2Cl)C2(CC=CC2)CN3)c1 [Compound 184, 4′-Chloro-5′-(3-(ethylsulfonyl)phenyl)-1′,2′-dihydrospiro[cyclopentane-1,3′-pyrrolo[2,3-b]pyridin]-3-ene]	7.30
CNS(=O)(=O)c1cccc(-c2cnc3c(c2Cl)C2(CC=CC2)CN3)c1 [Compound 185, 3-(4′-Chloro-1′,2′-dihydrospiro[cyclopentane-1,3′-pyrrolo[2,3-b]pyridin]-3-en-5′-yl)-N-methylbenzenesulfonamide]	7.12
CS(=O)(=O)c1ccc(-c2cnc3c(c2Cl)C2(CC=CC2)CN3)cc1 [Compound 186, 4′-Chloro-5′-(4-(methylsulfonyl)phenyl)-1′,2′-dihydrospiro[cyclopentane-1,3′-pyrrolo[2,3-b]pyridin]-3-ene]	6.56
CCS(=O)(=O)c1ccc(-c2cnc3c(c2Cl)C2(CC=CC2)CN3)cc1 [Compound 187, 4′-Chloro-5′-(4-(ethylsulfonyl)phenyl)-1′,2′-dihydrospiro[cyclopentane-1,3′-pyrrolo[2,3-b]pyridin]-3-ene]	6.52
CNS(=O)(=O)c1ccc(-c2cnc3c(c2Cl)C2(CC=CC2)CN3)cc1 [Compound 188, 4-(4′-Chloro-1′,2′-dihydrospiro[cyclopentane-1,3′-pyrrolo[2,3-b]pyridin]-3-en-5′-yl)-N-methylbenzenesulfonamide]	6.68
CCNS(=O)(=O)c1ccc(-c2cnc3c(c2Cl)C2(CC=CC2)CN3)cc1 [Compound 189, 4-(4′-Chloro-1′,2′-dihydrospiro[cyclopentane-1,3′-pyrrolo[2,3-b]pyridin]-3-en-5′-yl)-N-ethylbenzenesulfonamide]	6.50
N#Cc1cccc(-c2cnc3c(c2Cl)C2(CC=CC2)CN3)c1 [Compound 190, 3-(4′-Chloro-1′,2′-dihydrospiro[cyclopentane-1,3′-pyrrolo[2,3-b]pyridin]-3-en-5′-yl)benzonitrile]	6.45
CN(C)C(=O)c1c(N)ccc(-c2cnc3c(c2Cl)[C@]2(CC[C@@](C)(O)CC2)CN3)c1F [Compound 194a, 6-Amino-3-((1r,4r)-4′-chloro-4-hydroxy-4-methyl-1′,2′-dihydrospiro[cyclohexane-1,3′-pyrrolo[2,3-b]pyridin]-5′-yl)-2-fluoro-N,N-dimethylbenzamide]	7.52
CN(C)C(=O)c1c(N)ccc(-c2cnc3c(c2Cl)[C@]2(CC[C@](C)(O)CC2)CN3)c1F [Compound 194b, 6-Amino-3-((1s,4s)-4′-chloro-4-hydroxy-4-methyl-1′,2′-dihydrospiro[cyclohexane-1,3′-pyrrolo[2,3-b]pyridin]-5′-yl)-2-fluoro-N,N-dimethylbenzamide]	8.08
CN(C)C(=O)c1c(N)ccc(-c2cnc3c(c2Cl)C2(CCCCC2)CN3)c1F [Compound 200, 6-Amino-3-(4′-chloro-1′,2′-dihydrospiro[cyclohexane-1,3′-pyrrolo[2,3-b]pyridin]-5′-yl)-2-fluoro-N,N-dimethylbenzamide]	8.32
O=S(=O)(c1ccc(-c2cnc3c(c2Cl)C2(CC=CC2)CN3)cc1)n1cccn1 [Compound 203, 5′-(4-((1H-Pyrazol-1-yl)sulfonyl)phenyl)-4′-chloro-1′,2′-dihydrospiro[cyclopentane-1,3′-pyrrolo[2,3-b]pyridin]-3-ene]	6.05
OCC1(c2ccc(-c3cnc4c(c3Cl)C3(CC=CC3)CN4)cc2)CC1 [Compound 204, (1-(4-(4′-Chloro-1′,2′-dihydrospiro[cyclopentane-1,3′-pyrrolo[2,3-b]pyridin]-3-en-5′-yl)phenyl)cyclopropyl)methanol]	6.55
